# Reference: patent publication US20200017496A1 (priority 2017, published 2020)
# Where two headings read alike, the source gives them in different places.
# Tested on: Escherichia coli (ECO) isolates
# Assay: MIC of compounds alone and combined with antibacterials, broth microdilution (CLSI)
# Assay type: cell-based
# Details: for MIC: Escherichia coli
# Summary of the method: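 Log-phase isolates at final 5·10^5 CFU/mL in cation-adjusted Mueller-Hinton broth, incubated 16-20 h at 35° C in ambient air. MIC read visually as lowest concentration preventing growth, for compound alone and for antibacterial at each compound concentration.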
structure (smiles),measurement,setting,value
"C=CC1=C(C(=O)O)N2C(=O)[C@@H](NC(=O)/C(=N\OCC(=O)O)c3csc(N)n3)[C@H]2SC1 [FIX, Cefixime]",MIC ATB in combination,"ECO UFR207, AF1 @ 4 μg/mL",<=0.25 μg/mL
same,MIC ATB in combination,"ECO UFR207, AF1 @ 8 μg/mL",<=0.25 μg/mL
same,MIC ATB in combination,"ECO UFR208, AF1 @ 4 μg/mL",64 µg/mL
same,MIC ATB in combination,"ECO UFR208, AF1 @ 8 μg/mL",32 µg/mL
same,MIC ATB in combination,"ECO UFR209, AF1 @ 8 μg/mL",0.063 µg/mL
same,MIC ATB in combination,"ECO UFR210, AF1 @ 4 μg/mL",<=0.25 μg/mL
same,MIC ATB in combination,"ECO UFR210, AF1 @ 8 μg/mL",<=0.25 μg/mL
same,MIC ATB in combination,"ECO UFR211, AF1 @ 4 μg/mL",<=0.25 μg/mL
same,MIC ATB in combination,"ECO UFR211, AF1 @ 8 μg/mL",<=0.25 μg/mL
same,MIC ATB in combination,"ECO UFR212, AF1 @ 4 μg/mL",64 µg/mL
same,MIC ATB in combination,"ECO UFR212, AF1 @ 8 μg/mL",<=0.25 μg/mL
same,MIC ATB in combination,"ECO UFR218, AF1 @ 4 μg/mL",<=0.25 μg/mL
same,MIC ATB in combination,"ECO UFR218, AF1 @ 8 μg/mL",<=0.25 μg/mL
same,MIC,"ECO 190317, alone, read-out: MIC",> 128 µg/mL
same,MIC,"ECO 190457, alone, read-out: MIC",128 µg/mL
same,MIC,"ECO UFR16, alone, read-out: MIC",> 128 µg/mL
same,MIC,"ECO UFR20, alone",512 µg/mL
same,MIC,"ECO UFR209, alone, read-out: MIC",1020 µg/mL
same,MIC,"strain ECO 4133 (TEM-30, OXA-1), ATB alone",0.5 µg/mL
same,MIC,"strain ECO 4133 (TEM-30, OXA-1), CLA @ 4 μg/ml+ ATB",0.5 µg/mL
same,MIC,"strain ECO 5302 (TEM-1, OXA-1), ATB alone",0.5 µg/mL
same,MIC,"strain ECO 5302 (TEM-1, OXA-1), CLA @ 4 μg/ml+ ATB",0.5 µg/mL
same,MIC,"strain ECO 131119 (TEM-1, OXA-48), ATB alone",≤ 0.25 µg/mL
same,MIC,"strain ECO 131119 (TEM-1, OXA-48), CLA @ 4 μg/ml+ ATB",≤ 0.25 µg/mL
same,MIC,"strain ECO 180070 (TEM-1, CTX-M-15), ATB alone, read-out: MIC",128 µg/mL
same,MIC,"strain ECO 190314 (CTX-M-1), ATB alone",16 µg/mL
same,MIC,"strain ECO 190317 (TEM-1, SHV-12, CTX-M-15, OXA-1), ATB alone, read-out: MIC",> 128 µg/mL
same,MIC,"strain ECO 190317 (TEM-1, SHV-12, CTX-M-15, OXA-1), CLA @ 4 μg/ml+ ATB",0.5 µg/mL
same,MIC,"strain ECO 190457 (CTX-M-15, OXA-1), ATB alone, read-out: MIC",128 µg/mL
same,MIC,"strain ECO 190457 (CTX-M-15, OXA-1), CLA @ 4 μg/ml+ ATB",0.5 µg/mL
same,MIC,"strain ECO 190549 (CTX-M-1), ATB alone",16 µg/mL
same,MIC,"strain ECO 190549 (CTX-M-1), CLA @ 4 μg/ml+ ATB",0.5 µg/mL
same,MIC,"strain ECO 200159 (TEM-1, CTX-M-14), ATB alone",8 µg/mL
same,MIC,"strain ECO 200159 (TEM-1, CTX-M-14), CLA @ 4 μg/ml+ ATB",≤ 0.25 µg/mL
same,MIC,"strain ECO 200259 (CTX-M-14), ATB alone",8 µg/mL
same,MIC,"strain ECO 200259 (CTX-M-14), CLA @ 4 μg/ml+ ATB",≤ 0.25 µg/mL
same,MIC,"strain ECO 200344 (CTX-M-1), CLA @ 4 μg/ml+ ATB",0.5 µg/mL
same,MIC,"strain ECO 260096 (CTX-M-132), ATB alone, read-out: MIC",> 128 µg/mL
same,MIC,"strain ECO 260096 (CTX-M-132), CLA @ 4 μg/ml+ ATB",1 µg/mL
same,MIC,"strain ECO 260304 (CTX-M-15), CLA @ 4 μg/ml+ ATB",0.5 µg/mL
same,MIC,"strain ECO 260508 (TEM-1, CTX-M-15, OXA-1), ATB alone, read-out: MIC",> 128 µg/mL
same,MIC,"strain ECO 260508 (TEM-1, CTX-M-15, OXA-1), CLA @ 4 μg/ml+ ATB",0.5 µg/mL
same,MIC,"strain ECO RGN238 (OXA-1), ATB alone",≤ 0.25 µg/mL
same,MIC,"strain ECO RGN238 (OXA-1), CLA @ 4 μg/ml+ ATB",≤ 0.25 µg/mL
same,MIC,"strain ECO UFR15 (TEM-1, OXA-48), ATB alone",1 µg/mL
same,MIC,"strain ECO UFR15 (TEM-1, OXA-48), CLA @ 4 μg/ml+ ATB",1 µg/mL
same,MIC,"strain ECO UFR16 (TEM-1, CTX-M-15, OXA-1, OXA-48), ATB alone, read-out: MIC",> 128 µg/mL
same,MIC,"strain ECO UFR16 (TEM-1, CTX-M-15, OXA-1, OXA-48), CLA @ 4 μg/ml+ ATB",4 µg/mL
same,MIC,"strain ECO UFR17 (TEM-1, CTX-M-15, CMY-2, OXA-1, OXA-181), ATB alone, read-out: MIC",> 128 µg/mL
same,MIC,"strain ECO UFR17 (TEM-1, CTX-M-15, CMY-2, OXA-1, OXA-181), CLA @ 4 μg/ml+ ATB, read-out: MIC",> 128 µg/mL
same,MIC,"strain ECO UFR18 (CTX-M-15, OXA-204), ATB alone, read-out: MIC",> 128 µg/mL
same,MIC,"strain ECO UFR18 (CTX-M-15, OXA-204), CLA @ 4 μg/ml+ ATB, read-out: MIC",> 128 µg/mL
same,MIC,"strain ECO UFR19 (CTX-M-15, CMY-2, OXA-1, OXA-204), ATB alone, read-out: MIC",> 128 µg/mL
same,MIC,"strain ECO UFR19 (CTX-M-15, CMY-2, OXA-1, OXA-204), CLA @ 4 μg/ml+ ATB, read-out: MIC",> 128 µg/mL
same,MIC,"strain ECO UFR20 (SHV-1, CTX-M-15, OXA-1, OXA-232), ATB alone",512 µg/mL
same,MIC,"strain ECO UFR20 (SHV-1, CTX-M-15, OXA-1, OXA-232), CLA @ 4 μg/ml+ ATB, read-out: MIC",> 128 µg/mL
same,MIC,"strain ECO UFR61O (TEM-1, KPC-2), CLA @ 4 μg/ml+ ATB, read-out: MIC",32 µg/mL
same,MIC,"strain ECO UFR62 (TEM-1, CTX-M-9, KPC-2), ATB alone, read-out: MIC",128 µg/mL
same,MIC,"strain ECO UFR62 (TEM-1, CTX-M-9, KPC-2), CLA @ 4 μg/ml+ ATB, read-out: MIC",32 µg/mL
same,MIC,"strain ECO UFR74 (SHV-1, DHA-1), ATB alone, read-out: MIC",> 128 µg/mL
same,MIC,"strain ECO UFR74 (SHV-1, DHA-1), CLA @ 4 μg/ml+ ATB, read-out: MIC",> 128 µg/mL
same,MIC,"strain ECO UFR86 (ompC-, ompF-), ATB alone, read-out: MIC",2 µg/mL
same,MIC,"strain ECO UFR86 (ompC-, ompF-), CLA @ 4 μg/ml+ ATB, read-out: MIC",2 µg/mL
same,MIC,"strain ECO UFR174 (TEM-1, KPC-2, OXA-1), ATB alone",8 µg/mL
same,MIC,"strain ECO UFR175 (TEM-1, KPC-2, OXA-9), ATB alone",64 µg/mL
same,MIC,"strain ECO UFR175 (TEM-1, KPC-2, OXA-9), CLA @ 4 μg/ml+ ATB",16 µg/mL
same,MIC,"strain ECO UFR176 (KPC-3, OXA-9*), ATB alone",64 µg/mL
same,MIC,"strain ECO UFR184 (CTX-M-15, CMY-4, OXA-1, OXA-204), ATB alone, read-out: MIC",> 128 µg/mL
same,MIC,"strain ECO UFR184 (CTX-M-15, CMY-4, OXA-1, OXA-204), CLA @ 4 μg/ml+ ATB, read-out: MIC",> 128 µg/mL
same,MIC,"strain ECO UFR185 (OXA-48), ATB alone, read-out: MIC",> 128 µg/mL
